“And” between values parts separate entries of the source, which are not always exact repeats. Equal values may be shown once.

The test system of test [1] is A549 cells. The test can be described thus: PD assay (Assay 2): inhibition of nuclear symmetric Arginine dimethylation (SYM10 immunohistochemistry) in A549 cells. Conditions: individual measurements shown; for IC50: Homo sapiens, A549, PD assay in A549 cells, read-out: pIC50 Assay 2 (converted); for pIC50 Assay 2: PD assay in A549 cells. Type of test: cell-based. The method, boiled down:
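A549 cells dosed with a nine-point series (0.2% DMSO) for 48 h at 37° C, then fixed and immunostained with SYM10 anti-symmetric-dimethylarginine antibody, plus Hoechst and CellMask counterstains for high-content imaging. Nuclear signal normalized between DMSO and 10 μM reference-compound controls to derive IC50/pIC50.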

Test [2] has as its target T1, PRMT5-MEP50 enzyme (Homo sapiens, UniProt O14744).
T1 construct: One virus expresses full length human PRMT5 with Flag-tag at N-terminus
Kind of test: In vitro assay (Assay 1): PRMT5-MEP50 high throughput mass spectrometer assay, inhibition of SAH formation. Conditions: individual measurements shown, read-out: pIC50 Assay 1 (converted). Type of test: biochemical. The gist of the method:
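Flag-PRMT5/His-MEP50 full-length human complex (Sf9-expressed), 10 nM, with 1 μM SAM and 0.3 μM histone H2A in 20 mM Tris-HCl pH 8.5, 50 mM NaCl, 5 mM MgCl2, 1 mM DTT; 60 min at 30 °C, quenched with 1% formic acid. SAH quantified by RapidFire MS; IC50 from 11-point 1:2 series fitted to four-parameter Hill equation.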

T1 sequence (O14744 whole entry): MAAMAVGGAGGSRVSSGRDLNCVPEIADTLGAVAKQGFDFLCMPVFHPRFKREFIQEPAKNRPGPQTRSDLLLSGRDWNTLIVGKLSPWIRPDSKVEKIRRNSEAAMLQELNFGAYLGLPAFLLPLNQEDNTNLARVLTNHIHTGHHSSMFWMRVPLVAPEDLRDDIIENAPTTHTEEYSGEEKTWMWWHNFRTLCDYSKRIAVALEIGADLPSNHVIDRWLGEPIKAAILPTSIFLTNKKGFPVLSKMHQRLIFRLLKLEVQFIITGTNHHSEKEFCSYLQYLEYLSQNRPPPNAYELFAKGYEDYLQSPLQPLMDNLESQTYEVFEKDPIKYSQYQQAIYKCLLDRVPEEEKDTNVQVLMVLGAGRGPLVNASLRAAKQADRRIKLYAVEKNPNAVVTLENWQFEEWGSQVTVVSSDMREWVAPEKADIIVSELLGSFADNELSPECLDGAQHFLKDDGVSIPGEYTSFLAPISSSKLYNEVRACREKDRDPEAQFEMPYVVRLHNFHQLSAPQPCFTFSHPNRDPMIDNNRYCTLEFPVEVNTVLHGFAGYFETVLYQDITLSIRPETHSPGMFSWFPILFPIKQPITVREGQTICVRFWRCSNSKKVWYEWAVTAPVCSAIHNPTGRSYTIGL
T1 sequence (Q9BQA1 whole entry partner): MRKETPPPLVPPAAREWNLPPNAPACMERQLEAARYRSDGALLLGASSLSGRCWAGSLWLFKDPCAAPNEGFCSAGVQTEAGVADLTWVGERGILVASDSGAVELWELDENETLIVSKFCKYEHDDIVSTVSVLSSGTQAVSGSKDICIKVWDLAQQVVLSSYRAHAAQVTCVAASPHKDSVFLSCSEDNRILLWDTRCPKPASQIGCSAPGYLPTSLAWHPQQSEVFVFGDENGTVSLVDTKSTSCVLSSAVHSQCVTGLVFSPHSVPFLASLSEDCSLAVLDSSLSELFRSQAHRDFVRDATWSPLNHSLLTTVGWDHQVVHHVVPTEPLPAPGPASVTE

On to `CC(C)C(=O)O[C@@H]1[C@H](OC(=O)C(C)C)[C@@H](CN2CCCC23CCNCC3)O[C@H]1n1ccc2c(N)ncnc21` [Compound 94], for which the figures for the IC50 in test [1] and in test [2] were around 0.0501 µM and above 10 µM, respectively.
Turning to `CC(C)C(=O)O[C@@H]1[C@H](OC(=O)C(C)C)[C@@H](CN2CCCC23CCN(C)CC3)O[C@H]1n1ccc2c(N)ncnc21` [Compound 95a], the “pIC50 Assay 2” value in test [1] is 6.94 and 6.95. Besides, in test [2], the IC50 is above 10 µM.
As to `CC(C)C(=O)O[C@@H]1[C@H](OC(=O)C(C)C)[C@@H](CN2CCCC23CCN(C)CC3)O[C@H]1n1ccc2c(N)ncnc21` [Compound 95b], in test [1], the “pIC50 Assay 2” value was ~7.34 and 7.05. Also, in test [2], the IC50 is above 100 µM.
`CC(C)C(=O)O[C@H]1[C@@H](O)[C@H](n2ccc3c(N)ncnc32)O[C@@H]1CN1CCCC12CCN(C)CC2` [Compound 96]: the values for the IC50 in test [1] and in test [2] were 0.0204 µM and 0.631 µM, respectively.
For `CC(=O)O[C@H]1[C@@H](O)[C@H](n2ccc3c(N)ncnc32)O[C@@H]1CN1CCCC12CCN(C)CC2` [Compound 99], in that order: 0.204 µM and 0.174 µM.
Regarding `CC(C)C(=O)O[C@@H]1[C@H](OC(=O)C(C)C)[C@@H](CN2CC(F)(F)CC23CCN(C)CC3)O[C@H]1n1ccc2c(N)ncnc21` [Compound 103], the “pIC50 Assay 2” value in test [1] is recorded as 6.46. For the same compound, the IC50 in test [2] was above 10 µM.
For `CC(C)C(=O)O[C@@H]1[C@H](OC(=O)C(C)C)[C@@H](CN2CCCC23CCN(C)CC3)O[C@H]1c1ccc2c(N)ncnn12` [Compound 104], the IC50 in test [1] is 1.58 µM; in test [2], above 10 µM.
For the compound `CC(C)C(=O)O[C@@H]1[C@H](OC(=O)C(C)C)[C@@H](CN2CC(F)(F)CC23CCN(C)CC3)O[C@H]1c1ccc2c(N)ncnn12` [Compound 105], the IC50 in test [1] was 6.61 µM; in test [2], above 10 µM.
For `CC(C)C(=O)O[C@@H]1[C@@H](CN2CC(F)(F)CC23CCN(C)CC3)C[C@@H](n2ccc3c(N)ncnc32)[C@@H]1OC(=O)C(C)C` [Compound 106], in that order: 19.5 µM and above 10 µM.
For `CC(C)C(=O)O[C@@H]1[C@H](OC(=O)C(C)C)[C@@H](CN2CC(F)(F)CC23CCNCC3)O[C@H]1c1ccc2c(N)ncnn12` [Compound 107], in that order: 0.126 µM and above 10 µM.
As for `Nc1ncnc2c1ccn2[C@@H]1O[C@H](CN2CCOCC23CCNCC3)[C@@H](O)[C@H]1O` [Compound 108], the IC50 in test [1] was 0.204 µM; in test [2] it was 0.0257 µM.
Taken in the same sequence, the figures for `Nc1ncnn2c([C@@H]3O[C@H](CN4CCOC5(CNC5)C4)[C@@H](O)[C@H]3O)ccc12` [Compound 109] were above 10 µM and 2.24 µM.
Turning to `Nc1ncnc2c1ccn2[C@@H]1O[C@H](CN2CCC23CCNCC3)[C@@H](O)[C@H]1O` [Compound 112], the IC50 in test [1] was around 1.78 µM; in test [2], 0.0331 µM.
Taken in the same sequence, the figures for `Nc1ncnc2c1ccn2[C@@H]1O[C@H](CN2CCCCC23CCNCC3)[C@@H](O)[C@H]1O` [Compound 113] were 0.145 µM and 0.00813 µM.
Taken in the same sequence, the figures for `Nc1ncnc2c1ccn2[C@@H]1O[C@H](CN2CCCC3(CCNCC3)C2)[C@@H](O)[C@H]1O` [Compound 114] were around 1.07 µM and 0.0339 µM.
Taken in the same sequence, the figures for `CN1CCC2(CC1)CC(F)(F)CN2CC1C[C@@H](n2ccc3c(N)ncnc32)[C@H](O)[C@@H]1O` (stereo partly shown) [Compound 123] were 0.162 µM and 0.0224 µM.
In the case of `Nc1ncnc2c1ccn2[C@@H]1C[C@H](CN2CCCC23CCNCC3)[C@@H](O)[C@H]1O` [Compound 124], the IC50 in test [1] was 0.447 µM; in test [2], 0.0275 µM.
With `CN1CCC2(CCCN2CC2C[C@@H](n3ccc4c(N)ncnc43)[C@H](O)[C@@H]2O)CC1` (stereo partly shown) [Compound 125], the IC50 was around 0.871 µM in test [1] and 0.148 µM in test [2].
For the compound `Nc1ncnc2c1ccn2[C@@H]1C[C@H](CN2CC(F)(F)CC23CCNCC3)[C@@H](O)[C@H]1O` [Compound 126], the IC50 in test [1] was 0.0447 µM; in test [2] it was 0.0174 µM.
Taken in the same sequence, the figures for `NCC[C@@H]1CCCN1C[C@H]1CN(C2C=Cc3c(N)ncnc32)[C@H](O)[C@@H]1O` (stereo partly shown) [Compound 127] were around 2.75 µM and 0.0617 µM.
Taken in the same sequence, the figures for `NCC[C@@H]1CC(F)(F)CCN1C[C@H]1O[C@@H](c2ccc3c(N)ncnn23)[C@H](O)[C@@H]1O` [Compound 128] were above 10 µM and 0.204 µM.
Regarding `CN(C)C[C@@H]1COCCN1C[C@H]1O[C@@H](c2ccc3c(N)ncnn23)[C@H](O)[C@@H]1O` [Compound 129], the IC50 in test [1] was above 20 µM; in test [2], above 10 µM.
Taken in the same sequence, the figures for `Nc1ncnn2c([C@@H]3O[C@H](CN4CCOC[C@H]4CN4CCC(F)(F)C4)[C@@H](O)[C@H]3O)ccc12` [Compound 130] were above 20 µM and above 10 µM.
Regarding `Nc1ncnn2c([C@@H]3O[C@H](CN4CCOC[C@H]4CN4CCCC4)[C@@H](O)[C@H]3O)ccc12` [Compound 131], the IC50 in test [1] was above 20 µM; in test [2] it was above 10 µM.
For `NC[C@@H]1COCCN1C[C@H]1O[C@@H](c2ccc3c(N)ncnn23)[C@H](O)[C@@H]1O` [Compound 132], the IC50 in test [1] is above 20 µM; in test [2], 1.55 µM.
Taken in the same sequence, the figures for `Nc1ncnn2c([C@@H]3O[C@H](CN4CCCC45CCNCC5)[C@@H](O)[C@H]3O)ccc12` [Compound 133] were around 1.05 µM and 0.0288 µM.
Taken in the same sequence, the figures for `NCC[C@@H]1COCCN1C[C@H]1O[C@@H](c2ccc3c(N)ncnn23)[C@H](O)[C@@H]1O` [Compound 134] were 8.91 µM and 0.2 µM.
Taken in the same sequence, the figures for `CN1CCC2(CCCN2C[C@H]2O[C@@H](c3ccc4c(N)ncnn34)[C@H](O)[C@@H]2O)CC1` [Compound 135] were around 1.05 µM and 0.617 µM.
Turning to `Nc1ncnn2c([C@@H]3O[C@H](CN4CC(F)(F)CC45CCNCC5)[C@@H](O)[C@H]3O)ccc12` [Compound 136], the values for the IC50 in test [1] and in test [2] were around 0.263 µM and 0.0501 µM, respectively.
Taken in the same sequence, the figures for `Nc1ncnn2c([C@@H]3O[C@H](CN4C(C(F)(F)F)CCC45CCNCC5)[C@@H](O)[C@H]3O)ccc12` (stereo partly shown) [Compound 137] were above 10 µM and 1.15 µM.
Taken in the same sequence, the figures for `Nc1ncnn2c([C@@H]3O[C@H](CN4CCCC45CCN(CCc4ccc(F)cc4)CC5)[C@@H](O)[C@H]3O)ccc12` [Compound 139] were 1.66 µM and 3.24 µM.
For `N#CCN1CCC2(CCCN2C[C@H]2O[C@@H](c3ccc4c(N)ncnn34)[C@H](O)[C@@H]2O)CC1` [Compound 140], in that order: around 3.02 µM and 0.295 µM.
Take `Nc1ncnn2c([C@@H]3O[C@H](CN4CCCC45CCN(CC(F)(F)F)CC5)[C@@H](O)[C@H]3O)ccc12` [Compound 141]: the IC50 in test [1] and in test [2] was above 10 µM in each case.
With `CCN1CCC2(CCCN2C[C@H]2O[C@@H](c3ccc4c(N)ncnn34)[C@H](O)[C@@H]2O)CC1` [Compound 142], the IC50 in test [1] was above 10 µM; in test [2], 1.95 µM.
For `Nc1ncnn2c([C@@H]3O[C@H](CN4CC(F)(F)CC45CCN(CCc4ccc(F)cc4)CC5)[C@@H](O)[C@H]3O)ccc12` [Compound 143], in that order: 1.58 µM and 7.24 µM.

The values are drawn from patent US10898504B2, “Substituted nucleoside analogues for use as PRMT5 inhibitors” (Janssen Pharmaceutica NV, priority 2016, dated 2021).
